This is an account of results in PubChem BioAssay (NCI).

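Five concentrations, 48 hours, 96-well plates. Abbreviation: GI50, concentration required for 50% inhibition of growth. Definition used: TGI = concentration required for complete inhibition of growth.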

Test systems include HCT-15 colon; IGROV1 ovarian; KM12 colon; EKVX NSCLC; MDA-MB-231 breast; RPMI-8226 leukemia; MOLT-4 leukemia; ACHN renal; U251 CNS; NCI-H226 lung.
What all share (assay): growth of human tumour cells (NCI), 48 h

For `N#CC(C#N)=C/C=C(\Sc1ccc(F)cc1Cl)c1ccc(Cl)cc1`, the GI50 with HCT-15 colon is 425 nM; in the experiment on IGROV1 ovarian it was 1.81 µM; with KM12 colon it was 0.714 µM; with EKVX NSCLC, 8.42 µM; in the experiment with MDA-MB-231 breast, 0.478 µM; in the experiment with RPMI-8226 leukemia, 96.3 nM. Besides, the GI50 in the experiment with MOLT-4 leukemia was 0.194 µM; in the experiment with ACHN renal it was 883 nM; in the experiment with U251 CNS, 0.414 µM. The TGI in the experiment on HCT-15 colon is 1.58 µM; in the experiment with IGROV1 ovarian, > 54.5 µM; with KM12 colon, 2.79 µM; in the experiment with EKVX NSCLC, 26.9 µM; in the experiment on MDA-MB-231 breast, 2.27 µM; in the experiment with RPMI-8226 leukemia it was 0.515 µM. Also, the TGI with MOLT-4 leukemia was > 100 µM; in the experiment with ACHN renal, 2.14 µM; in the experiment on U251 CNS, 1.69 µM.

For `COc1cc(C)c2sc3ccccc3c(=O)c2c1NCCN(C)C`, the GI50 in the experiment with HCT-15 colon is 3130 nM; in the experiment with IGROV1 ovarian, 3.56 µM; with KM12 colon, 5.22 µM; with MDA-MB-231 breast, 3.48 µM; with NCI-H226 lung, 2.3 µM; with RPMI-8226 leukemia, 2850 nM. In addition, the results for the GI50 in the experiment on MOLT-4 leukemia, in the experiment on ACHN renal and in the experiment on U251 CNS were 2.58 µM, 2970 nM and 3.66 µM, respectively. For the same molecule, the TGI was determined as 11.2 µM with HCT-15 colon; 14.5 µM in the experiment on IGROV1 ovarian; 18.9 µM with KM12 colon; 15.9 µM in the experiment with MDA-MB-231 breast; 6.81 µM in the experiment with NCI-H226 lung; 8.87 µM in the experiment with RPMI-8226 leukemia. Also, the TGI in the experiment on MOLT-4 leukemia turned out to be 6.81 µM; with ACHN renal, 11.3 µM; in the experiment on U251 CNS, 14.1 µM.

As for `Nc1nc(N)c2nc3c(nc2n1)CCCCCCCCCC3`, the GI50 with HCT-15 colon is 891 nM; in the experiment with IGROV1 ovarian, 0.421 µM; in the experiment with KM12 colon, 8.6 µM; in the experiment with MDA-MB-231 breast, 6.04 µM; in the experiment with NCI-H226 lung, 19 µM; in the experiment with RPMI-8226 leukemia, > 100000 nM. Also, the GI50 with MOLT-4 leukemia was 3.83 µM; in the experiment with ACHN renal, 2980 nM; in the experiment with U251 CNS, 2.71 µM. Moreover, the TGI in the experiment with HCT-15 colon, with IGROV1 ovarian, in the experiment on KM12 colon, in the experiment on MDA-MB-231 breast, in the experiment with NCI-H226 lung and with RPMI-8226 leukemia was > 100 µM throughout. For the same molecule, the TGI with MOLT-4 leukemia, in the experiment with ACHN renal and with U251 CNS was > 100 µM in each case.

With `Cn1cc(C2=C(Nc3ccccc3)C(=O)NC2=O)c2ccccc21`, the GI50 was 24800 nM with HCT-15 colon; > 25 µM with IGROV1 ovarian; 17 µM in the experiment with KM12 colon; > 25 µM in the experiment on MDA-MB-231 breast; > 25 µM in the experiment with NCI-H226 lung; > 25000 nM with RPMI-8226 leukemia. In addition, the GI50 with MOLT-4 leukemia is > 23.1 µM; with ACHN renal it was > 25000 nM; with U251 CNS, > 25 µM. Also, the TGI with HCT-15 colon, with IGROV1 ovarian, in the experiment on KM12 colon, in the experiment on MDA-MB-231 breast, with NCI-H226 lung and in the experiment on RPMI-8226 leukemia was > 25 µM throughout. The TGI in the experiment on MOLT-4 leukemia, with ACHN renal and in the experiment on U251 CNS was > 25 µM throughout.

For the molecule `CCN1C(=NCCO)NS(=O)(=O)c2ccccc21`, the TGI with HCT-15 colon, with IGROV1 ovarian, in the experiment on KM12 colon, in the experiment on EKVX NSCLC, in the experiment with MDA-MB-231 breast and in the experiment on NCI-H226 lung was > 100 µM throughout. In addition, the TGI with MOLT-4 leukemia, with ACHN renal and with U251 CNS was > 100 µM in each case.

Regarding `O=Cc1ccc(-c2ccc(-c3nc4ccccc4s3)cc2)s1`, the GI50 in the experiment on HCT-15 colon is 39800 nM; in the experiment with IGROV1 ovarian, 55.8 µM; in the experiment with KM12 colon, 38.4 µM; with EKVX NSCLC, 42.1 µM; in the experiment with MDA-MB-231 breast, 17.6 µM; in the experiment on NCI-H226 lung, 66.1 µM. Also, the GI50 is 51.5 µM with MOLT-4 leukemia, 43500 nM with ACHN renal and 51.9 µM with U251 CNS. Besides, the TGI in the experiment with HCT-15 colon was > 100 µM; with IGROV1 ovarian, > 100 µM; with KM12 colon, > 100 µM; with EKVX NSCLC it was > 100 µM; in the experiment with MDA-MB-231 breast, 78.2 µM; in the experiment with NCI-H226 lung, > 100 µM. Moreover, the TGI with MOLT-4 leukemia, with ACHN renal and in the experiment with U251 CNS was > 100 µM in each case.

Regarding `COC(=O)C(C(=O)OC)C(Br)C(Br)C(Br)c1ccccc1` (centres undefined), the GI50 with HCT-15 colon was 2830 nM; in the experiment with IGROV1 ovarian it was 4.92 µM; with KM12 colon, 17 µM; in the experiment on MDA-MB-231 breast, 13.2 µM; in the experiment on NCI-H226 lung, 15.1 µM; in the experiment on RPMI-8226 leukemia, 2680 nM. In addition, the results for the GI50 with MOLT-4 leukemia, with ACHN renal and in the experiment on U251 CNS were 4.11 µM, 2800 nM and 14.8 µM, respectively. Further, the TGI with HCT-15 colon stood at 11 µM; in the experiment on IGROV1 ovarian, 27 µM; in the experiment on KM12 colon, 32.4 µM; with MDA-MB-231 breast, 26.8 µM; in the experiment with NCI-H226 lung it was 29.5 µM; in the experiment with RPMI-8226 leukemia, 7.8 µM. Also, the TGI came to 16.8 µM with MOLT-4 leukemia, 7.16 µM with ACHN renal and 28 µM with U251 CNS.

For `COc1cc(Cl)cc(-c2nn(-c3cccc(NC(=O)Nc4ccc(Cl)c(Cl)c4)c3)cc2-c2ccncc2)c1`, the GI50 with HCT-15 colon is 2510 nM; with IGROV1 ovarian, 4.35 µM; with KM12 colon, 2.02 µM; with MDA-MB-231 breast, 1.87 µM; in the experiment on NCI-H226 lung, 3.06 µM; with RPMI-8226 leukemia it was 652 nM. Further, the figures for the GI50 in the experiment on MOLT-4 leukemia, with ACHN renal and in the experiment with U251 CNS were 1.69 µM, 3230 nM and 1.7 µM, respectively. Moreover, the TGI with HCT-15 colon is 31.5 µM; with IGROV1 ovarian, > 100 µM; with KM12 colon it was 10.8 µM; in the experiment on MDA-MB-231 breast, 4.52 µM; in the experiment with NCI-H226 lung it was > 100 µM; in the experiment on RPMI-8226 leukemia, 3.37 µM. Besides, the results for the TGI in the experiment with MOLT-4 leukemia, with ACHN renal and in the experiment with U251 CNS were 6.13 µM, > 100 µM and 6.03 µM, respectively.

`C/C(=N\NC(=S)N1CCCCCC1)c1cccc2cccnc12`: the TGI is > 21.9 µM in the experiment with HCT-15 colon; > 94.1 µM in the experiment on IGROV1 ovarian; > 87.4 µM in the experiment on KM12 colon; > 75.3 µM in the experiment on EKVX NSCLC; > 79 µM in the experiment with MDA-MB-231 breast; 15.3 µM in the experiment on RPMI-8226 leukemia. Further, the TGI in the experiment with MOLT-4 leukemia is > 100 µM; with ACHN renal, 11.6 µM; in the experiment on U251 CNS, > 29.2 µM.
